Assay results: patent US8039219B2, “Method of using GPR35 to identify metabolic-stabilizing compounds” (Arena Pharmaceuticals, Inc., priority 2004, dated 2011)

Tests used:
GPR35 = GPR35 (Homo sapiens, UniProt Q9HC97); conditions: reported by Wang et al., J. Biol. Chem. 281:22021-22028 (2006); cited from earlier work
[1] = system: mouse GPR35 expression in 3T3-L1 adipocytes; assay: TaqMan analysis of mouse GPR35 expression in 3T3-L1 adipocytes after treatments; format: cell-based; conditions: 10 μM Linoleic Acid, 1 and 24 hours, serum free media; control untreated adipocytes at time 0; FIG. 8
Method: GPR35 expression in 3T3-L1 adipocytes was then analyzed after certain treatments, such as treatment with linoleic acid. Briefly, 3T3-L1 cells were differentiated into adipocytes using a standardized protocol found in Patel Y M, Lane M D. (Role of calpain in adipocyte differentiation. Proc. Natl. Acad. Sci. USA 96:1279-1284, 1999). Cells were then treated for 1 and 24 hours in serum free media containing either 50 nM insulin (Sigma Cat # I-1882), 10 μM Linoleic Acid (Calbiochem Cat # 436305 lot #B52793), 50 pg/ml IL-1Beta (R&D Systems Cat # 401-ML lot #BN034012), 0.5 ng/mL TNF-alpha (R&D Systems Cat# 410-MT lot # CS083051). Control was untreated 3T3-L1 adipocytes at time 0. RNA was then isolated using Trizol method (Invitrogen Cat # 15596-018). cDNA was made using Biorad iScript cDNA Synthesis Kit.
A 1× TaqMan supermix was made in a 5 mL polypropylene tube. Forward and Reverse primers were added to give a 300 nM final concentration; appropriate amount of probe was added to give a final concentration of 200 nM. Total volume per well was 20 μL. 2 μL was cDNA, while the other 18 μL was TaqMan supermix and nuclease-free water. The sequence for primers and the probe were: […]
The thermo cycler conditions used were: (1) initial steps: hold for 2 minutes at 50° C., then hold for 10 minutes at 95° C. […]

Sequence of GPR35 (Q9HC97 whole entry, species assumed): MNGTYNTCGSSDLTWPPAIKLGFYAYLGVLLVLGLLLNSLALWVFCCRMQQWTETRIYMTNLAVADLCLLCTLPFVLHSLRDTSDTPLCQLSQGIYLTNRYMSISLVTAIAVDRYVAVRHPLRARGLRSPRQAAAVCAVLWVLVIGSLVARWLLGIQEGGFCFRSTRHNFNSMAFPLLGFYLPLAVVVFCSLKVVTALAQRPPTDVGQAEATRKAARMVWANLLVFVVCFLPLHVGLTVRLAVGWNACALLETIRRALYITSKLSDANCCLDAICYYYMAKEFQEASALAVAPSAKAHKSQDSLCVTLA

Compound: O=C(O)c1cc(=O)c2ccccc2[nH]1 [kynurenic acid]
- ligand for GPR35 (GPR35): ligand for GPR35

Compound: CCCCC/C=C\C/C=C\CCCCCCCC(=O)O [linoleic acid]
- GPR35 expression in 3T3-L1 adipocytes [1]: significantly increased
